In patent US10456379B2, “Imidazole-based antimicrobial agents” (priority 2014, dated 2019):
Converted amounts (≈) assume the structure as drawn. Read-outs that look alike come from different tables or passages of the source.

What was measured:
[1] = tested on: Streptococcus pneumoniae (Chester, ATCC49619); test: Broth microdilution MIC assay, Streptococcus pneumoniae; type: cell-based; conditions: for Antibacterial activity Streptococcus pneumoniae: MIC class score, MIC100, broth microdilution; for MIC: Streptococcus pneumoniae, ATCC49619, read-out: Antibacterial activity, SP (Streptococcus pneumoniae), MIC class
[2] = tested on: daptomycin-resistant Staphylococcus aureus (from MRSA COL); test: Broth microdilution MIC assay, daptomycin-resistant MRSA; type: cell-based; conditions: 24 h, read-out: Antibacterial activity, MRSA strains with additional resistance, D (daptomycin), MIC class
[3] = tested on: vancomycin-resistant Enterococcus faecalis (ATCC51575); test: microbe, parasite or virus in culture; type: cell-based; conditions: ATCC51575; vancomycin-resistant Enterococcus faecalis; read-out: Antibacterial activity, VREFs (vancomycin-resistant EFs), MIC class
[4] = tested on: Staphylococcus epidermidis (PCI 1200, ATCC12228); test: Broth microdilution MIC assay, Staphylococcus epidermidis; type: cell-based; conditions: read-out: Antibacterial activity, SE (Staphylococcus epidermidis), MIC class
[5] = tested on: Staphylococcus aureus MRSA (COL); test: Broth microdilution MIC assay, Staphylococcus aureus MRSA (COL); type: cell-based; conditions: for MIC: Staphylococcus aureus, MRSA, read-out: Antibacterial activity, MRSA (Staphylococcus aureus MRSA), MIC class; for Antibacterial activity Staphylococcus aureus (MRSA): MIC class score, MIC100, broth microdilution, COL strain
[6] = tested on: Mycobacterium smegmatis (mc(2)155); test: Broth microdilution MIC assay, Mycobacterium smegmatis
[7] = tested on: vancomycin-resistant Enterococcus faecium (ATCC51559); test: microbe, parasite or virus in culture; type: cell-based
[8] = tested on: Enterococcus faecalis (ATCC29212); test: Broth microdilution MIC assay, Enterococcus faecalis; type: cell-based; conditions: read-out: Antibacterial activity, EFs (Enterococcus faecalis), MIC class
[9] = tested on: Enterococcus faecium (AGR15, ATCCBAA-2127); test: Broth microdilution MIC assay, Enterococcus faecium; type: cell-based; conditions: ATCCBAA2127, read-out: Antibacterial activity, EFm (Enterococcus faecium), MIC class
[10] = tested on: Staphylococcus aureus MSSA (Newman); test: Broth microdilution MIC assay, Staphylococcus aureus MSSA (Newman); type: cell-based; conditions: for Antibacterial activity Staphylococcus aureus (MSSA): MIC class score, MIC100, broth microdilution, Newman strain
[11] = tested on: platensimycin-resistant Staphylococcus aureus (from MRSA COL); test: Broth microdilution MIC assay, platensimycin-resistant MRSA; type: cell-based; conditions: 24 h, read-out: Antibacterial activity, MRSA strains with additional resistance, P (platensimycin), MIC class
[12] = tested on: MRSA (COL) resistant to triclosan; test: Broth microdilution MIC assay, triclosan-resistant MRSA; conditions: Staphylococcus aureus, read-out: Antibacterial activity, MRSA strains with additional resistance, T (triclosan), MIC class
[13] = ATCC51559, vancomycin-resistant Enterococcus faecium, read-out: Antibacterial activity, VREFm (vancomycin-resistant EFm), MIC class

Compound	Antibacterial activity Streptococcus pneumoniae [1]	MIC [3]	MIC [1]	MIC [7, 13]	MIC [8]	other results
Cc1[nH]c(-c2ccc(-c3cccc(Cl)c3Cl)o2)nc1-c1ccccc1 [compound 2]	3 (MIC100 of 2-5 μg/ml)	20 to 50 µg/mL (≈ 54.2 to 135 µM)	–	–	–	MIC [2]: 3 to 10 µg/mL (≈ 8.12 to 27.1 µM)
Cc1[nH]c(-c2ccc(-c3ccccc3Cl)o2)nc1-c1ccccc1 [compound 3]	–	–	< 1 µg/mL	–	–	MIC [4]: 11 to 20 µg/mL (≈ 32.9 to 59.7 µM); MIC [5]: 11 to 20 µg/mL (≈ 32.9 to 59.7 µM)
Cc1[nH]c(-c2ccc(-c3ccccc3F)s2)nc1-c1ccccc1 [compound 15]	–	–	–	–	–	Antibacterial activity, MS (Mycobacterium smegmatis), MIC class [6]: 2 (MIC100 of 11-20 μg/ml)
Cc1nc(-c2ccc(-c3ccc(Cl)cc3Cl)o2)[nH]c1-c1ccc(F)cc1 [compound 16]	–	20 to 50 µg/mL (≈ 51.6 to 129 µM)	2 to 5 µg/mL (≈ 5.16 to 12.9 µM)	20 to 50 µg/mL (≈ 51.6 to 129 µM)	20 to 50 µg/mL (≈ 51.6 to 129 µM)	–
Cc1[nH]c(-c2ccc(-c3ccccc3C(F)(F)F)o2)nc1-c1ccccc1 [compound 17]	3 (MIC100 of 2-5 μg/ml)	–	2 to 5 µg/mL (≈ 5.43 to 13.6 µM)	–	–	MIC [9]: 20 to 50 µg/mL (≈ 54.3 to 136 µM)
Cc1[nH]c(-c2ccc(-c3ccccc3OC(F)(F)F)o2)nc1-c1ccccc1 [compound 18]	3 (MIC100 of 2-5 μg/ml)	20 to 50 µg/mL (≈ 52 to 130 µM)	2 to 5 µg/mL (≈ 5.2 to 13 µM)	20 to 50 µg/mL (≈ 52 to 130 µM)	20 to 50 µg/mL (≈ 52 to 130 µM)	MIC [9]: 20 to 50 µg/mL (≈ 52 to 130 µM)
Cc1nc(-c2ccc(-c3ccccc3OC(F)(F)F)o2)[nH]c1-c1cccc(Cl)c1 [compound 21]	–	20 to 50 µg/mL (≈ 47.8 to 119 µM)	–	20 to 50 µg/mL (≈ 47.8 to 119 µM)	20 to 50 µg/mL (≈ 47.8 to 119 µM)	Antibacterial activity Staphylococcus aureus (MSSA) [10]: 3 (MIC100 of 3-10 μg/ml); MIC [11]: 3 to 10 µg/mL (≈ 7.16 to 23.9 µM); MIC [12]: 3 to 10 µg/mL (≈ 7.16 to 23.9 µM); Antibacterial activity Staphylococcus aureus (MRSA) [5]: 3 (MIC100 of 3-10 μg/ml); MIC [5]: 3 to 10 µg/mL (≈ 7.16 to 23.9 µM)
Cc1nc(-c2ccc(-c3ccccc3C(F)(F)F)o2)[nH]c1-c1cccc(Cl)c1 [compound 22]	3 (MIC100 of 2-5 μg/ml)	–	2 to 5 µg/mL (≈ 4.97 to 12.4 µM)	–	–	Antibacterial activity Staphylococcus aureus (MSSA) [10]: 2 (MIC100 of 11-20 μg/ml); MIC ([10]; Staphylococcus aureus, read-out: Antibacterial activity, MSSA (Staphylococcus aureus MSSA), MIC class): 11 to 20 µg/mL (≈ 27.3 to 49.7 µM)
Cc1[nH]c(-c2ccc(-c3ccccc3OC(F)(F)F)o2)nc1-c1ccc(F)cc1 [compound 23, 4-(4-Fluoro-phenyl)-5-methyl-2-[5-(2-trifluoromethoxy-phenyl)-furan-2-yl]-1H-imidazole]	–	20 to 50 µg/mL (≈ 49.7 to 124 µM)	–	20 to 50 µg/mL (≈ 49.7 to 124 µM)	20 to 50 µg/mL (≈ 49.7 to 124 µM)	MIC [9]: 20 to 50 µg/mL (≈ 49.7 to 124 µM)
Cc1nc(-c2ccc(-c3ccccc3OC(F)(F)F)o2)[nH]c1-c1ccc(Br)cc1 [compound 29]	3 (MIC100 of 2-5 μg/ml)	–	2 to 5 µg/mL (≈ 4.32 to 10.8 µM)	–	–	Antibacterial activity Staphylococcus aureus (MRSA) [5]: 2 (MIC100 of 11-20 μg/ml)
Cc1[nH]c(-c2ccn(-c3ccccc3C(F)(F)F)c2)nc1-c1ccccc1 [compound 33]	–	–	6 to 10 µg/mL (≈ 16.3 to 27.2 µM)	–	–	MIC [4]: 11 to 20 µg/mL (≈ 29.9 to 54.4 µM)
Cc1[nH]c(-c2cc(C)n(-c3cccc(C(F)(F)F)c3)c2C)nc1-c1ccccc1 [compound 36]	–	–	2 to 5 µg/mL (≈ 5.06 to 12.6 µM)	–	–	Antibacterial activity Staphylococcus aureus (MRSA) [5]: 2 (MIC100 of 11-20 μg/ml)
Cc1nc(-c2ccc(-c3cccc(OC(F)(F)F)c3)o2)[nH]c1-c1ccc(F)cc1 [compound 37]	–	20 to 50 µg/mL (≈ 49.7 to 124 µM)	< 1 µg/mL	20 to 50 µg/mL (≈ 49.7 to 124 µM)	20 to 50 µg/mL (≈ 49.7 to 124 µM)	Antibacterial activity, MS (Mycobacterium smegmatis), MIC class [6]: 2 (MIC100 of 11-20 μg/ml)
Cc1[nH]c(-c2ccc(-c3cccc(C(F)(F)F)c3)o2)nc1-c1ccc(F)cc1 [compound 38]	3 (MIC100 of 2-5 μg/ml)	–	2 to 5 µg/mL (≈ 5.18 to 12.9 µM)	–	20 to 50 µg/mL (≈ 51.8 to 129 µM)	MIC ([7]; Enterococcus faecium, ATCC51559, read-out: Antibacterial activity, VREFm (vancomycin-resistant EFm), MIC class): 20 to 50 µg/mL (≈ 51.8 to 129 µM)
Cc1[nH]c(-c2ccc(-c3ccc(Cl)c(C(F)(F)F)c3)o2)nc1-c1ccccc1 [compound 39]	–	20 to 50 µg/mL (≈ 49.7 to 124 µM)	< 1 µg/mL	20 to 50 µg/mL (≈ 49.7 to 124 µM)	20 to 50 µg/mL (≈ 49.7 to 124 µM)	–
Cc1nc(-c2ccc(-c3ccc(Cl)c(OC(F)(F)F)c3)o2)[nH]c1-c1ccccc1 [compound 41]	–	20 to 50 µg/mL (≈ 47.8 to 119 µM)	–	20 to 50 µg/mL (≈ 47.8 to 119 µM)	20 to 50 µg/mL (≈ 47.8 to 119 µM)	MIC [4]: 11 to 20 µg/mL (≈ 26.3 to 47.8 µM)
Cc1[nH]c(-c2ccc(-c3ccc(Cl)c(C(F)(F)F)c3)o2)nc1-c1ccc(F)cc1 [compound 42]	–	11 to 20 µg/mL (≈ 26.1 to 47.5 µM)	–	20 to 50 µg/mL (≈ 47.5 to 119 µM)	11 to 20 µg/mL (≈ 26.1 to 47.5 µM)	MIC [9]: 20 to 50 µg/mL (≈ 47.5 to 119 µM)
Cc1nc(-c2ccc(-c3ccc(Cl)c(OC(F)(F)F)c3)o2)[nH]c1-c1ccc(F)cc1 [compound 43]	–	–	–	–	20 to 50 µg/mL (≈ 45.8 to 114 µM)	Antibacterial activity Staphylococcus aureus (MRSA) [5]: 2 (MIC100 of 11-20 μg/ml)
